In article PMC6079455, “Discovery of Novel Caeridins from the Skin Secretion of the Australian White's Tree Frog, Litoria caerulea” (International Journal of Genomics, 2018):
Ends that are not written are not given here.

Tests used:
[1] = test system: horse erythrocytes; experiment: Haemolytic test; format: cell-based; settings: 32 μM, horse red blood cells, 37°C, 2 h, relative to 1% Triton X-100
Procedure: The haemolysis of Caeridins was tested on prepared defrinated horse red blood cells (TCS Biosciences Ltd., Buckingham, UK) by incubating equal volumes of peptide solutions with erythrocyte suspensions at 37°C for 2 H. Maximum haemolysis control was included by incubating equal volumes of 1% Triton X-100 (Sigma-Aldrich, St. Louis, MO, USA) with erythrocyte suspensions. Lysis of erythrocytes was detected by the measurement of supernatant absorbance at a wavelength of 550 nm using a Synergy HT plate reader (Biolise BioTek ELx808, Winooski, VT, USA). The level of haemolysis was as calculated as (3) Haemolysis %=A−A0/A1−A0×100%, where A represents the absorbance with peptide treatments, A0 represents the average absorbance in untreated erythrocytes, and A1 represents the average absorbance in the maximum haemolysis control (1% Triton X-100-treated).

[2] = test system: MRSA NCTC12493; experiment: Antimicrobial test (broth microdilution); format: cell-based, methicillin-resistant S. aureus
Procedure: (§1) The antimicrobial activities were tested by the broth microdilution method and evaluated by the determination of MIC values against different tested microorganisms, the Gram-positive bacteria, S. aureus (NCTC 10788), E. faecalis (NCTC12697), and MRSA (NCTC 12493); the Gram-negative bacterium, E. coli (NCTC 10418); and the yeast, C. albicans (NCYC 1467). The microorganisms were cultured to their log phase in MHB and diluted to 5 × 10^5 CFU/ml then subsequently treated with peptide solutions of gradient concentrations. After incubation at 37°C overnight, the growth of microorganisms was detected at a wavelength of 550 nm using a Synergy HT plate reader (Biolise BioTek ELx808, Winooski, VT, USA). The MICs were determined as the lowest concentration of peptide where […].

[3] = test system: E. coli NCTC10418; experiment: Antimicrobial test (broth microdilution); format: cell-based, Escherichia coli
Procedure: as §1

[4] = test system: rat ileum smooth muscle; experiment: Rat ileum smooth muscle test; settings: 10^−11 to 10^−6 M
Procedure: (§2) Female Wistar rats (250–300 g) were euthanized by CO2 asphyxiation followed by cervical dislocation under appropriate Home Office (UK) animal licenses. Full urinary bladder and ileum were carefully removed from the abdomen, then placed in cold Kreb's solution (118 mM NaCl, 4.7 mM KCl, 25 mM NaHCO3, 1.15 mM NaH2PO4, 2.5 mM CaCl2, 1.1 mM MgCl2, and 5.6 mM glucose), equilibrated with a carbogen mixture (95% O2, 5% CO2). The prepared smooth muscles linked with transducers were placed in 2 ml capacity organ baths with Kreb's solution flowing through at 2 ml/min and maintained at 37°C with constant bubbling of carbogen gas mixture (95% O2, […]) and equilibrated for 1 h prior to analysis. Then the viability of these smooth muscle preparations was tested by 60 mM KCl. Caeridins were tested at sequential molar concentrations in the range from 10^−6 M to 10^−11 M. Dose-response curves were depicted for each Caeridin on individual smooth muscle preparations (n = 5). Changes in tension of the smooth muscle preparations were detected by pressure transducers connected to a PowerLab System (ADInstruments Pty Ltd.). Data were recorded and calculated to obtain the means of responses and standard error of means (SEM). The dose-response curve of each Caeridin was established using best-fit algorithms through the data analysis package provided by GraphPad Prism (Version 6.0; GraphPad Software Inc., San Diego, CA, USA), and the comparative EC50 value for each peptide was depicted.

[5] = test system: rat urinary bladder smooth muscle; experiment: Rat urinary bladder smooth muscle test; settings: 10^−11 to 10^−6 M
Procedure: as §2

[6] = MHB, 5 × 10^5 CFU/ml, 37°C overnight, 550 nm

Substance GLFDIVGKLLGGLGL-NH2 [Caeridin-a1] has a haemolysis [1] of 18%, an MBC [2] of 32 µM and an MIC [2, 6] of 16 µM. For the same substance, the MBC [3] was 64 µM, the MIC [3, 6] was 32 µM and the “smooth muscle activity (rat ileum)” value [4] was “did not show any smooth muscle activities”. For the same substance, the “smooth muscle activity (rat bladder)” value [5] was “did not show any smooth muscle activities”.
